# Assay results from PubChem BioAssay AID2060503 (Molecular Pharmacology Branch, DTP, NCI, 2025).
# System: 817829-284-R-J1-PDC complex spheroids, viability
# Test: Anticancer human tumor 817829-284-R-J1-PDC patient-derived colon adenocarcinoma cell line growth inhibition [GQUAD]
# Conditions: for IC50: curve of first compound; for viability, T/C: stronger effect = lower value
# Description: DNA G-quadruplex Stabilizer Agents in Combinations in Complex Spheroids
# A high-throughput screen of multi-cell type tumor spheroids was designed to identify active combinations of DNA G-quadruplex stabilizer agents and targeted small molecules. Complex spheroids include a stromal component modeled by human endothelial cells (HUVEC) and fibroblasts modeled by human mesenchymal stem cells (MSCs). The concentration ranges selected for each drug and investigational agent were based upon clinically achievable concentrations if the clinical Cmax of the agent was known.
# Compounds. The drugs and investigational agents: pidnarulex (CX-5461; NSC782164), APTO-253 (NSC789042), BRACO-19 (NSC847499), peposertib (NSC802822), ceralasertib (NSC780249), elimusertib (NSC800525), camonsertib (NSC841442), AZD-1390 (NSC803789), olaparib (NSC753686), talazoparib (NSC767125), ART-558 (NSC835418), sotorasib (NSC818433), MRTX-1133 (NSC836407), SN-38 (NSC673596), topotecan (NSC609699), etoposide (NSC141540), doxorubicin (NSC123127), gemcitabine (NSC613327), 5-fluorouracil (NSC19893), paclitaxel (NSC125973), vemurafenib (NSC761431), panobinostat (NSC761190), R-306465 (JNJ-16241199; NSC773264), adavosertib (NSC754352), TP-3654 (NSC805149), carboplatin (NSC241240), KSQ-4279 (NSC840948), and staurosporine (NSC755774) were obtained from the National Cancer Institute (NCI) Developmental Therapeutics Program Chemical Repository (34). The FDA-approved anticancer drug set is available from the NCI Developmental Therapeutics Program. […] The stock solutions were prepared in dimethyl sulfoxide (DMSO, Sigma-Aldrich, St. Louis, MO, cat. D2650) at 800-fold the tested concentration and stored at -70 degrees C prior to their use. All drugs and investigational agents were tested over a range starting from a high concentration at or near the clinical Cmax and decreasing in half-log increments. If the clinical Cmax for an agent had not been determined, the highest concentration tested was 10 microM.
# 2.3 Cell Culture. All cells were maintained in an incubator at 37 degrees C and 5% CO2 with 95% humidity. The PDC lines were cultured according to standard operating procedures established by the NCI PDMR. All PDCs were thawed and cultured in Matrigel-coated flasks prepared with a working solution of 1X Ham's F-12 nutrient mix, without supplementation (Invitrogen, cat. 11765054), 100 U/mL penicillin-streptomycin (Invitrogen, cat. 15140122), and 2.5% Matrigel (Corning Inc., cat. 354248) for the first three passages. The 857933-349-R-J2-PDC line was cultured in 6C/Colon 1B media, which includes advanced DMEM/F-12 (Thermo Fisher Scientific, cat. 12634028), 10 mM HEPES (Thermo Fisher Scientific, cat. 15630080), 1X GlutaMAX supplement (Thermo Fisher Scientific, cat. 35050061), 0.1 mg/mL primocin (InvivoGen, cat. ant-pm-2), 10% defined fetal bovine serum, heat inactivated (HyClone Laboratories Inc., cat. SH30070.03HI), 50% L-WRN conditioned media (ATCC, cat. CRL-3276), 1.25 mM N-Acetyl-L-cysteine (Sigma-Aldrich, cat. A9165), 10 mM nicotinamide (Sigma-Aldrich, cat. N0636), 1X B-27 supplement (Thermo Fisher Scientific, cat. 17504044), 1X N-2 supplement (Thermo Fisher Scientific, cat. 17502048), 10 microM Y-27632 dihydrochloride (Tocris Bioscience, cat. 1254), and 50 ng/mL human EGF recombinant protein (Thermo Fisher Scientific, cat. PHG0311). The 485176-168-R4-J1-PDC line was cultured in Panc media, which includes all 6C/Colon 1B media components plus 100 ng/mL human FGF-10 (Thermo Fisher Scientific, cat. 100-26), 500 nM SB-431542 (Selleckchem, cat. S1067), and gastrin (Tocris, cat. 3006).
# […]
# [1] = second compound 0.0316 µM, first compound 0.0316 µM
# [2] = second compound 0.0316 µM, first compound 0.1 µM
# [3] = second compound 0.0316 µM, first compound 0.316 µM
# [4] = second compound 0.0316 µM, first compound 1 µM
# [5] = second compound 0.0316 µM, first compound 3.16 µM
# [6] = second compound 0.0316 µM, first compound 10 µM
# [7] = second compound 0.1 µM, first compound 0.0316 µM
# [8] = second compound 0.1 µM, first compound 0.1 µM
# [9] = second compound 0.1 µM, first compound 0.316 µM
# [10] = second compound 0.1 µM, first compound 1 µM
# [11] = second compound 0.1 µM, first compound 3.16 µM
# [12] = second compound 0.1 µM, first compound 10 µM
# [13] = second compound 0.316 µM, first compound 0.0316 µM
# [14] = second compound 0.316 µM, first compound 0.1 µM
# [15] = second compound 0.316 µM, first compound 0.316 µM
# [16] = second compound 0.316 µM, first compound 1 µM
# [17] = second compound 0.316 µM, first compound 3.16 µM
# [18] = second compound 0.316 µM, first compound 10 µM
# [19] = second compound 1 µM, first compound 0.0316 µM
# [20] = second compound 1 µM, first compound 0.1 µM
# [21] = second compound 1 µM, first compound 0.316 µM
# [22] = second compound 1 µM, first compound 1 µM
# [23] = second compound 1 µM, first compound 3.16 µM
# [24] = second compound 1 µM, first compound 10 µM
# [25] = second compound 3.16 µM, first compound 0.0316 µM
# [26] = second compound 3.16 µM, first compound 0.1 µM
# [27] = second compound 3.16 µM, first compound 0.316 µM
# [28] = second compound 3.16 µM, first compound 1 µM
# [29] = second compound 3.16 µM, first compound 3.16 µM
# [30] = second compound 3.16 µM, first compound 10 µM
# [31] = second compound 10 µM, first compound 0.0316 µM
# [32] = second compound 10 µM, first compound 0.1 µM
# [33] = second compound 10 µM, first compound 0.316 µM
# [34] = second compound 10 µM, first compound 1 µM
# [35] = second compound 10 µM, first compound 3.16 µM
# [36] = second compound 10 µM, first compound 10 µM
# 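Also: spheroids exposed to agents for 7 days before readout.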
# 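For viability, T/C in this document: percent viability relative to DMSO vehicle control taken as 100%.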
structure (smiles),measurement,setting,value
CC1COCCN1c1cc(C2(O)CC3CCC(C2)O3)c2cnn(-c3ccn[nH]3)c2n1 (stereo unspecified) + CN(C)c1ccc(Nc2c3ccc(NC(=O)CCN4CCCC4)cc3nc3cc(NC(=O)CCN4CCCC4)ccc23)cc1,IC50,second compound 0.0316 µM,< 31.6 nM
same,IC50,second compound 0.1 µM,< 31.6 nM
same,IC50,second compound 0.316 µM,< 31.6 nM
same,IC50,second compound 1 µM,< 31.6 nM
same,IC50,second compound 3.16 µM,< 31.6 nM
same,IC50,second compound 10 µM,< 31.6 nM
same,"viability, T/C",[1],30%
same,"viability, T/C",[2],13.9%
same,"viability, T/C",[3],8.88%
same,"viability, T/C",[4],7.25%
same,"viability, T/C",[5],6.14%
same,"viability, T/C",[6],5.19%
same,"viability, T/C",[7],31.5%
same,"viability, T/C",[8],15.1%
same,"viability, T/C",[9],8.31%
same,"viability, T/C",[10],6.53%
same,"viability, T/C",[11],6.56%
same,"viability, T/C",[12],4.3%
same,"viability, T/C",[13],29.9%
same,"viability, T/C",[14],14.4%
same,"viability, T/C",[15],10.4%
same,"viability, T/C",[16],7.63%
same,"viability, T/C",[17],5.34%
same,"viability, T/C",[18],4.95%
same,"viability, T/C",[19],29.1%
same,"viability, T/C",[20],16.7%
same,"viability, T/C",[21],9.05%
same,"viability, T/C",[22],6.94%
same,"viability, T/C",[23],7.14%
same,"viability, T/C",[24],4.24%
same,"viability, T/C",[25],28.9%
same,"viability, T/C",[26],13.8%
same,"viability, T/C",[27],9.17%
same,"viability, T/C",[28],7.04%
same,"viability, T/C",[29],7.35%
same,"viability, T/C",[30],4.31%
same,"viability, T/C",[31],20.2%
same,"viability, T/C",[32],13.6%
same,"viability, T/C",[33],7.79%
same,"viability, T/C",[34],6.03%
same,"viability, T/C",[35],5.19%
same,"viability, T/C",[36],3.21%
CC1COCCN1c1cc(C2(S(C)(=N)=O)CC2)nc(-c2ccnc3[nH]ccc23)n1 (stereo unspecified) + CN(C)c1ccc(Nc2c3ccc(NC(=O)CCN4CCCC4)cc3nc3cc(NC(=O)CCN4CCCC4)ccc23)cc1,IC50,second compound 0.0316 µM,584 nM
same,IC50,second compound 0.1 µM,616 nM
same,IC50,second compound 0.316 µM,589 nM
same,IC50,second compound 1 µM,566 nM
same,IC50,second compound 3.16 µM,569 nM
same,IC50,second compound 10 µM,391 nM
same,"viability, T/C",[1],94.2%
same,"viability, T/C",[2],93.2%
same,"viability, T/C",[3],75.4%
same,"viability, T/C",[4],27.5%
same,"viability, T/C",[5],11.2%
same,"viability, T/C",[6],7.5%
same,"viability, T/C",[7],90.1%
same,"viability, T/C",[8],95.4%
same,"viability, T/C",[9],82.3%
same,"viability, T/C",[10],26.4%
same,"viability, T/C",[11],11.1%
same,"viability, T/C",[12],7.72%
same,"viability, T/C",[13],99%
same,"viability, T/C",[14],96.5%
same,"viability, T/C",[15],79.8%
same,"viability, T/C",[16],24.7%
same,"viability, T/C",[17],9.67%
same,"viability, T/C",[18],7.15%
same,"viability, T/C",[19],86%
same,"viability, T/C",[20],98.5%
same,"viability, T/C",[21],76%
same,"viability, T/C",[22],24.1%
same,"viability, T/C",[23],10.8%
same,"viability, T/C",[24],7.23%
same,"viability, T/C",[25],91.4%
same,"viability, T/C",[26],94.9%
same,"viability, T/C",[27],70.1%
same,"viability, T/C",[28],29.9%
same,"viability, T/C",[29],13%
same,"viability, T/C",[30],7.64%
same,"viability, T/C",[31],99.6%
same,"viability, T/C",[32],87.9%
same,"viability, T/C",[33],57.1%
same,"viability, T/C",[34],20.3%
same,"viability, T/C",[35],9.51%
same,"viability, T/C",[36],5%
O=C(c1cc(Cc2n[nH]c(=O)c3ccccc23)ccc1F)N1CCN(C(=O)C2CC2)CC1 + CN(C)c1ccc(Nc2c3ccc(NC(=O)CCN4CCCC4)cc3nc3cc(NC(=O)CCN4CCCC4)ccc23)cc1,IC50,second compound 0.0316 µM,> 10000 nM
same,IC50,second compound 0.1 µM,> 10000 nM
same,IC50,second compound 0.316 µM,> 10000 nM
same,IC50,second compound 1 µM,> 10000 nM
same,IC50,second compound 3.16 µM,> 10000 nM
same,IC50,second compound 10 µM,> 10000 nM
same,"viability, T/C",[1],108%
same,"viability, T/C",[2],97.8%
same,"viability, T/C",[3],102%
same,"viability, T/C",[4],90.7%
same,"viability, T/C",[5],78.8%
same,"viability, T/C",[6],58.3%
same,"viability, T/C",[7],101%
same,"viability, T/C",[8],107%
same,"viability, T/C",[9],108%
same,"viability, T/C",[10],98.6%
same,"viability, T/C",[11],100%
same,"viability, T/C",[12],60.2%
same,"viability, T/C",[13],102%
same,"viability, T/C",[14],97.6%
same,"viability, T/C",[15],107%
same,"viability, T/C",[16],93%
same,"viability, T/C",[17],95.2%
same,"viability, T/C",[18],66.8%
same,"viability, T/C",[19],107%
same,"viability, T/C",[20],96.7%
same,"viability, T/C",[21],99%
same,"viability, T/C",[22],93.7%
same,"viability, T/C",[23],93.7%
same,"viability, T/C",[24],62.5%
same,"viability, T/C",[25],100%
same,"viability, T/C",[26],103%
same,"viability, T/C",[27],94.1%
same,"viability, T/C",[28],99.5%
same,"viability, T/C",[29],94.9%
same,"viability, T/C",[30],58.3%
same,"viability, T/C",[31],97.4%
same,"viability, T/C",[32],102%
same,"viability, T/C",[33],94.5%
same,"viability, T/C",[34],88.4%
same,"viability, T/C",[35],70.7%
same,"viability, T/C",[36],52.5%
